Columns and labels:
adult male C57 mice = test: Tail suspension test (TST); assay type: in vivo, mouse; conditions: TST route sc, p < 0.05 compared to vehicle-treated mice
Experimental: The experiments were performed using adult male C57 mice (6-10 weeks of age, 20-30 g, Hilltop Lab, PA). The mice were housed in standard rodent cages with stainless steel mesh wire bar lids in groups of 4 with controlled temperature and light cycle (6:00 a.m.-6:00 p.m.). Animals were given free access to food (Harlan Teklad Global 18% protein (Madison, Wis.)) and water during a minimum 2-day habituation period to the laboratory. Animals that were used in the study were handled, housed, and sacrificed (using compressed CO2) in accord with the current NIH guidelines regarding the use and care of laboratory animals, and all applicable local, state, and federal regulations and guidelines. Animals are identified by cage number, and by markings applied to the proximal tip of the tail using a permanent marker. Group sizes (n=8, and therefore 30-50 animals per study) provide reliable estimates of treatment effects, and this species and strain of mouse has been recognized as appropriate for pharmacology studies.
To measure efficacy of the compounds the compounds were tested using a tail suspension test. The tail suspension test is a behavioral test used to evaluate the efficacy of antidepressant drugs in rodents. In the TST, mice (n=8/group) were suspended by the tail with tape approximately 30-50 cm above the lab bench. Mice are positioned such that the base of their tail is perpendicular to the lab bench. Each mouse is given 1 trial that last 6 minutes. The total duration of immobility is calculated as the percentage of time that the mouse is immobile. The duration of immobility is the main parameter measured. This is calculated from the cumulated time during which the animals is absent of initiated movements including passive swaying. When antidepressant drugs are administered, immobility is decreased by a variety of classes of antidepressant drugs. One or more of the compounds show antidepressant activity.

[1] = target: T1, delta-opioid receptor (Accession NP_000902) (Homo sapiens, UniProt P41143); test: cAMP assay (receptor G-protein mediated response, HTRF); assay type: cell-based
T1 sequence (P41143 whole entry): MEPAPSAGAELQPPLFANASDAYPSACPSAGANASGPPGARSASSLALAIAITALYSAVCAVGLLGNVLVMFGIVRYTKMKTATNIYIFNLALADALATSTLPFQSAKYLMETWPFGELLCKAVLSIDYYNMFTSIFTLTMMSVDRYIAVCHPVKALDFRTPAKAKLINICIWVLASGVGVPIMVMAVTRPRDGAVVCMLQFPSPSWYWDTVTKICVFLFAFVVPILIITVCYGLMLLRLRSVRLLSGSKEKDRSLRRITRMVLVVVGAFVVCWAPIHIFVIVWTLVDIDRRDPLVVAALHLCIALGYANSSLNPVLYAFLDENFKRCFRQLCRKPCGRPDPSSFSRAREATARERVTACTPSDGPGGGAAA
Experimental: (§1) Plasmids encoding delta-opioid receptor (Accession NP_000902), mu-opioid receptor (Accession NP_000905) and kappa-opioid receptor (Accession Assession NP_000903) were generated in the pCMV-Prolink backbone and transfected into an EA-arrestin parental human embryonic kidney (HEK-293) cell line from DiscoveRx Corporation. Clonal stable lines were subsequently selected under G418.
Cell lines were grown adherently in Minimum Essential Media (Cellgro cat #10-010-CM) containing 10% fetal bovine serum (Hyclone cat #SH30071.03), 4 mM glutamine (Cellgro cat #25-005-CI), 150 ug/ml hygromycin B (Cellgro cat #30-240-CR), 150 ug/ml G418 (Cellgro cat #30-234-CR), and 50 u/50 ug penicillin/streptomycin (Lonza cat #17-603E). […]
Receptor G-protein mediated responses were determined by measuring changes in intracellular cAMP using CisBio HTRF cAMP HiRange kit (cat #62AM6PEJ) based on time-resolved fluorescence resonance energy transfer (TR-FRET). […] Following a 30 minute incubation at 37° C. the components of the cAMP HiRange kit were added as directed and the plates were read after 1 hour on a BMG PheraStar plate reader. Responses were measured as the ratio of fluorescence at 665 nm/620 nm per manufacturer's instructions.

[2] = target: T1, delta-opioid receptor (Accession NP_000902); test: β-arrestin recruitment assay (DiscoveRx PathHunter); assay type: cell-based; conditions: β-arrestin pathway, HEK-293 stable line
Experimental: as §1
Cell lines were grown adherently in Minimum Essential Media (Cellgro cat #10-010-CM) containing 10% fetal bovine serum (Hyclone cat #SH30071.03), 4 mM glutamine (Cellgro cat #25-005-CI), 150 ug/ml hygromycin B (Cellgro cat #30-240-CR), 150 ug/ml G418 (Cellgro cat #30-234-CR), and 50 u/50 ug penicillin/streptomycin (Lonza cat #17-603E). Prior to the assay cells were removed from the flasks with CellStripper (Cellgro cat #25-056-CI), repeatedly pipetted to disperse cells, and spun at low speed for 5 min at room temperature. Cells were then resuspended at 250,000 cells/ml in growth media and plated at 5,000 cells/well in 384 well plates (Greiner part #784080). […]
Receptor mediated beta-arrestin recruitment was determined using the DiscoveRx β-arrestin PathHunter Detection kit (cat #93-0001). […] Following a 60 minute incubation at 37° C. the components of the DiscoveRx β-arrestin PathHunter Detection kit were added as directed and the plates were read after 1 hour on a BMG PheraStar plate reader.

SMILES	Active TST Dose (adult male C57 mice) [mg/kg]	further results
CCCN1C[C@H](COc2ccc3c(c2)C(=O)NC3)[C@@H](c2ccc(F)cc2)C1 [Compound A0045]	≤10	–
CCCN1C[C@H](COc2ccc3c(c2)C(=O)NC3)[C@H](c2ccc(F)cc2)C1 [Compound A0073]	≤30	–
CCCN1C[C@@H](COc2ccc3c(c2)C(=O)NC3)[C@H](c2ccc(F)cc2)C1 [Compound A0090]	≤10	–
CCCN1C[C@H](COc2ccc3c(c2)C(=O)NC3)[C@H](c2ccccc2)C1 [Compound A0095]	≤10	–
O=C1NCc2ccc(OC[C@@H]3CN(CC4CC4)C[C@H]3c3ccc(F)cc3)cc21 [Compound A0105]	≤10	–
CCCN1C[C@H](COc2ccc3c(c2)C(=O)NC3)[C@H](c2ccc(F)c(F)c2)C1 [Compound A0108]	≤10	–
CCCN1C[C@H](COc2ccc3c(c2)C(=O)NC3)[C@H](c2ccc(OCCN3C(=O)CCC3=O)cc2)C1 [Compound A0113]	≤10	–
COc1ccc([C@@H]2CN(CC3CC3)C[C@@H]2COc2ccc3c(c2)C(=O)NC3)cc1F [Compound A0116]	–	Active TST Dose (adult male C57 mice; po): ≤30 mg/kg
CCCN1C[C@@]2(COc3ccc4c(c3)C(=O)NC4)C[C@@]2(c2cccc(F)c2)C1 [Compound A0128]	–	Active TST Dose (adult male C57 mice; po): ≤30 mg/kg
Fc1ccc([C@@H]2CCNC[C@H]2COc2ccc3c(c2)OCO3)cc1 [Paroxetine, paroxetine]	–	hDOR G Span ([1]; G-protein (cAMP) pathway, HEK-293 stable line): <100; selectivity for the delta-opioid receptor ([1]; versus mu- and kappa-opioid receptor): non-selective agonist; hDOR B Span [2]: <100; EC50 ([2]; read-out: hDOR B pEC50 (converted)): > 1 µM
